In patent US20170101670A1, “METHOD FOR DETECTING RARE MUTATION” (NATIONAL CANCER CENTER, priority 2015, published 2017):

Test system: Human TK6 lymphoblasts
Assay: Induction of point mutation of genomic DNA by mutagen in cultured cells, detected by sequencing 100 copies of genomic DNA
Assay type: cell-based
Conditions: TK6 cells exposed to 0, 0.1, 0.3, 1, 3, 10 or 30 μM for 24 hours, collected day 7; variants with ratio 0.8 to 10% counted; three independent analyses; FIG. 2
Description: In Example 1, N-nitroso-N-methylurea (hereinafter referred to as “MNU”) that was a mutagen was administered to cultured cells, to induce a point mutation of genomic DNA. Then, mutation was detected by the detection method of this embodiment, and the appearance frequency of the mutation was calculated. This analysis was independently performed three times.
Human TK6 lymphoblasts (hereinafter, referred to as “TK6 cell”) were obtained from American Type Culture Collection. On day 0, 1×10^5 cells of TK6 cells were seeded on a 10 cm plate. On day 1, the TK6 cells were exposed to MNU (Sigma) in a concentration of 0, 0.1, 0.3, 1, 3, 10 or 30 μM for 24 hours. On day 7, the number of cells was counted, and the cells were collected. Then, genomic DNA was extracted by phenol/chloroform method.
The copy number of the extracted genomic DNA was determined quantitatively by real-time PCR using SYBR (registered trademark) green I (BioWhittaker Molecular Applications) and iCycler Thermal Cycler (Bio-Rad Laboratories, Inc.). In the table, “F” means a forward primer, and “R” means a reverse primer. Each sample was measured using three kinds of primers. […]
A sample containing 100 copies of genomic DNA was prepared, based on the measurement result of the copy number. […] The average number of reads of sequencing was 5,000. Among the analyzed 48,587 bases, 15,724 bases were selected. […]

Compound: CN(N=O)C(N)=O [MNU, N-nitroso-N-methylurea]
- appearance frequency of point mutation (somatic mutation induced by mutagen): correlation between the administration amount of MNU and the accumulation of mutations
